Results as given in patent publication US7078406B2, “Substituted diphenyloxazoles, the synthesis thereof, and the use thereof as fluorescence probes” (Johnson & Johnson Pharmaceutical Research & Development, …, priority 2001, dated 2006).
Entries after “also recorded” stand apart in the source; their conditions may differ.

Tests used:
[1] = Fluorescence emission spectra of the dye in different solvents; type: physicochemical; conditions: 10 μM dye; shifted from aqueous buffer (50 mM HEPES, pH7.5, 150 mM sodium chloride) to nonaqueous environment (MeOH, DMSO)
Experimental: FIG. 1A provides the fluorescence emission spectra of 4-[5-(4-dimethylaminophenyl)oxazol-2-yl]-N-(2-guanidinoethyl)-benzenesulfonamide in methanol and in dimethylsulfoxide. Also provided is the fluroescence emission spectrum of the buffer. FIG. 1B provides part of the spectrum of FIG. 1A, showing the range from 0 to 10,000 cps.
(§1) 4-[5-(4-dimethylaminophenyl)oxazol-2-yl]-N-(2-guanidinoethyl)-benzenesulfonamide was mixed with different solvents to yield a final dye concentration of 10 μM. The spectra of this dye in methanol (MeOH), dimethyl sulfoxide (DMSO), and aqueous buffer (50 mM HEPES, pH7.5, 150 mM sodium chloride) are shown in FIG. 1. This figure illustrates the marked enhancement in emission intensity (200–500 fold) observed for this dye when it is shifted from an aqueous environment to a nonaqueous environment. The 4-[5-(4-dimethylaminophenyl)oxazol-2-yl]-N-(2-guanidinoethyl)benzenesulfonamide was mixed with a 0.1 mg/mL solution of thrombin, a protein, in buffer (50 mM HEPES, pH7.5, 150 mM sodium chloride), to yield a final dye concentration of 10 μM. The fluorescence emission spectra of this solution were recorded both immediately after mixing and also following heating of the solution to 80° C. for 5 minutes.

thrombin = thrombin (Homo sapiens, UniProt P00734); test: Fluorescence emission spectra of dye mixed with native and heat-unfolded thrombin; conditions: for emission maximum (comparison dyes): comparison value, conditions not stated
Experimental: FIG. 2 provides the fluorescence emission spectra of 4-[5-(4-dimethylaminophenyl)oxazol-2-yl]-N-(2-guanidinoethyl)-benzenesulfonamide (10 μM) mixed with thrombin (0.1 mg/mL) in buffer (50 mM HEPES, pH 7.5, 150 mM NaCl). The emission spectrum indicated by the squares was acquired with native (folded) thrombin, immediately after preparing the solution. The emission spectrum indicated by the triangles was obtained after heating the solution to 80° C. for five minutes to unfold the thrombin protein.
as §1

PPAR-gamma = target: T1, PPAR-gamma (Homo sapiens, UniProt P37231); test: Fluorescence curves on heating in a Thermofluor instrument (protein unfolding transition); conditions: 100 μM dye, 0.2 mg/mL protein, 25 mM HEPES pH 7.9, 200 mM NaCl, 5 mM dithiothreitol, 1 mM EDTA, 384-well plate
T1 sequence (P37231 1-505): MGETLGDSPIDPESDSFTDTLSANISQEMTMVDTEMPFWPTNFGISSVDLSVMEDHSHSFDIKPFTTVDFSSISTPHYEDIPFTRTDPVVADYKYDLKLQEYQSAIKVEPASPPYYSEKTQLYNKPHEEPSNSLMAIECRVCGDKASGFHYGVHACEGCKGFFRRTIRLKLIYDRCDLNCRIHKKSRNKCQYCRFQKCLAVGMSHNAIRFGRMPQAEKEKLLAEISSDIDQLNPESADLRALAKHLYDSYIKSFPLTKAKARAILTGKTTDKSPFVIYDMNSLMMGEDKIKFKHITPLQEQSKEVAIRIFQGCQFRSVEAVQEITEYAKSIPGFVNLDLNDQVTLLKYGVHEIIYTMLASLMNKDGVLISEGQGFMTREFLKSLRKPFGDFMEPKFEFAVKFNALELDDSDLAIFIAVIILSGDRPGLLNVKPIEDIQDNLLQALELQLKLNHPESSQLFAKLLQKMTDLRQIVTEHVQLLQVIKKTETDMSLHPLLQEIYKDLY
From the text: FIG. 3 provides the individual fluorescent curves for three dyes 4-[5-(4-dimethylaminophenyl)oxazol-2-yl]-N-(2-guanidinoethyl)-benzene-sulfonamide, 5-(4″-dimethylaminophenyl)-2-(4′-phenyl)oxazole sulfonate, and 1,8-anilino-napthylene sulfonate) when analyzed in a Thermofluor® instrument using the protein PPAR-gamma as described in Example 3.
4-[5-(4-dimethylaminophenyl)oxazol-2-yl]-N-(2-guanidinoethyl)-benzenesulfonamide, 5-(4″-dimethylaminophenyl)-2-(4′-phenyl)oxazole sulfonate, and 1,8-anilino-napthylene sulfonate were mixed with a protein, PPAR-gamma, each in separate wells of a polypropylene 384-well plate. Each solution consisted of 100 μM of each dye mixed with 0.2 mg/mL protein in a buffer consisting of 25 mM HEPES pH 7.9, 200 mM NaCl, 5 mM dithiothreitol, and 1 mM EDTA. Individual fluorescence curves generated by heating to different temperatures in a Thermofluor® instrument are shown in FIG. 3.

CN(C)c1ccc(-c2cnc(-c3ccc(S(=O)(=O)NCCNC(=N)N)cc3)o2)cc1 [4-[5-(4-dimethylaminophenyl)oxazol-2-yl]-N-(2-guanidinoethyl)benzenesulfonamide]
enhancement in emission intensity [1]: 200–500 fold | emission maximum of dye bound to unfolded protein (thrombin; 10 μM dye, 0.1 mg/mL thrombin, 50 mM HEPES pH7.5, 150 mM NaCl, after heating to 80° C. for 5 minutes): 520 nm | change in fluorescence emission on binding to unfolded protein (thrombin; 10 μM dye, 0.1 mg/mL thrombin, after heating to 80° C. for 5 minutes vs native): substantial enhancement in fluorescence emission; also recorded: increase in fluorescence emission | measurable unfolding transition of the protein (PPAR-gamma): can be readily monitored

O=S(=O)(O)c1cccc2cccc(Nc3ccccc3)c12 [1,8-anilinonaphthylene sulfonate, reference compound]
emission maximum (comparison dyes) (thrombin): approximately 460 nm | measurable unfolding transition of the protein (PPAR-gamma): fail to produce a measurable transition

CN(C)c1ccc(-c2cnc(-c3ccc(S(=O)(=O)O)cc3)o2)cc1 [5-(4″-dimethylaminophenyl)-2-(4′-phenyl)oxazole sulfonate, reference compound]
emission maximum (comparison dyes) (thrombin): approximately 460 nm | measurable unfolding transition of the protein (PPAR-gamma): fail to produce a measurable transition
